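Dose response: 5 concentrations. Exposure: 48 h. Format: 96-well plates. Endpoint: linear interpolation; highest concentration if not reached. The concentration for 50% growth inhibition is given as GI50.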 Calls of active or inactive are those of the source. No stated cut-off is given here; in the data, active = GI50 up to about 1.1 µM and inactive = higher.

Experimental findings from ChEMBL document CHEMBL1201862, “PubChem BioAssay data set” (2004) are described below.

Test systems include 786-0; A498; BT-549; CCRF-CEM; HCT-15; M14; MDA-MB-435; MDA-N; MOLT-4; NCI-H226; NCI-H23; NCI-H522; NCI/ADR-RES; OVCAR-5; SF-539; SN12C; SNB-75; T47D; TK-10; OVCAR-4.
Holding throughout (assay): DTP human tumour cell line panel, 48 h

Take `Cc1ccc(S(=O)(=O)n2cc(C=O)c(-c3cn(S(=O)(=O)c4ccc(C)cc4)cc3-c3cn(S(=O)(=O)c4ccc(C)cc4)cc3C=O)c2)cc1`: the GI50 (usually the concentration that inhibits growth by half) was 35.8 µM (inactive) in the test on 786-0; > 100 µM (inactive) with A498; 60.1 µM (inactive) in the test on BT-549; 17.9 µM (inactive) with CCRF-CEM; 55.7 µM in the test on HCT-15; 29.6 µM (inactive) in the test on M14. The GI50 in the test on MDA-MB-435 was 44.8 µM (inactive); in the test on MDA-N, 75.2 µM (inactive); in the test with MOLT-4, 12.8 µM (inactive); in the test on NCI-H226, 29.6 µM (inactive); with NCI-H23, 23.7 µM (inactive); with NCI-H522 it was 26.9 µM (inactive). Besides, the GI50 is > 100 µM (inactive) with NCI/ADR-RES; 85.3 µM (inactive) with OVCAR-5; 25.9 µM (inactive) in the test on SF-539; > 100 µM (inactive) in the test with SN12C; 29.6 µM (inactive) in the test on SNB-75; 28 µM (inactive) in the test on T47D. The GI50 in the test with TK-10 was 20.9 µM (inactive).

As to `CC(C)=CC1C(C(=O)OCc2cc3c(cc2Cl)OCO3)C1(C)C` (stereo unspecified), the GI50 with 786-0 was 28.4 µM (inactive); in the test on A498, 26.9 µM (inactive); in the test on BT-549 it was 63 µM (inactive); in the test on CCRF-CEM, 32.6 µM (inactive); in the test on HCT-15, 30.1 µM; in the test with M14, 36.7 µM (inactive). In addition, the GI50 with MDA-MB-435 was 33.7 µM (inactive); with MDA-N it was 24.7 µM (inactive); in the test with MOLT-4, 13.1 µM (inactive); with NCI-H226, 39.6 µM (inactive); with NCI-H23, 25.8 µM (inactive); in the test on NCI-H522 it was 15.1 µM (inactive). Also, the GI50 was 42.8 µM (inactive) with NCI/ADR-RES; 49.8 µM (inactive) in the test on OVCAR-4; 39.2 µM (inactive) in the test on OVCAR-5; 28.6 µM (inactive) with SN12C; 26.9 µM (inactive) with SNB-75; 17.3 µM (inactive) in the test on T47D. For the same compound, the GI50 with TK-10 is 63.2 µM (inactive).

With `CCCCCCCCCCCCCCCCNC(=O)/C(=C\c1ccc(Cl)c(Cl)c1)NC(=O)c1ccccc1`, the GI50 is 19.4 µM (inactive) in the test on 786-0; 19.9 µM (inactive) in the test with A498; > 100 µM (inactive) in the test with BT-549; 30.8 µM in the test on HCT-15; > 100 µM (inactive) in the test with M14; > 100 µM (inactive) in the test on MDA-MB-435. The GI50 was 68.7 µM (inactive) with MDA-N; 15.5 µM (inactive) in the test on MOLT-4; 23.6 µM (inactive) in the test on NCI-H226; 22.8 µM (inactive) in the test on NCI-H23; 37.2 µM (inactive) with NCI-H522; 48.3 µM (inactive) in the test with NCI/ADR-RES. The GI50 in the test on OVCAR-4 was 24.8 µM (inactive); with OVCAR-5 it was 47.2 µM (inactive); in the test on SF-539 it was 16.5 µM (inactive); with SN12C it was 25.8 µM (inactive); in the test on SNB-75, 16.7 µM (inactive); in the test with T47D it was > 100 µM (inactive). Besides, the GI50 in the test with TK-10 was 20 µM (inactive).

Turning to `COC(=O)c1ccc(NC(=O)c2cc3c(cc2Br)OCO3)o1`, the GI50 was > 100 µM (inactive) in the test with 786-0; > 100 µM (inactive) with A498; 39.5 µM (inactive) in the test with BT-549; > 100 µM (inactive) with CCRF-CEM; 94 µM in the test on HCT-15; > 100 µM (inactive) with M14. The GI50 is 32.7 µM (inactive) in the test with MDA-MB-435; 42.5 µM (inactive) with MDA-N; 95.7 µM (inactive) in the test on MOLT-4; > 100 µM (inactive) in the test on NCI-H226; > 100 µM (inactive) with NCI-H23; 15.7 µM (inactive) in the test with NCI-H522. Also, the GI50 with NCI/ADR-RES is 59 µM (inactive); in the test on OVCAR-4, > 100 µM (inactive); in the test on OVCAR-5 it was > 100 µM (inactive); in the test on SF-539 it was > 100 µM (inactive); in the test on SN12C, > 100 µM (inactive); in the test on T47D it was 90.6 µM (inactive). The GI50 in the test on TK-10 was > 100 µM (inactive).

`CCCCOc1c(C(=O)O)cc(Br)cc1C(=O)O`: the GI50 with 786-0 was > 100 µM (inactive); with A498, > 100 µM (inactive); in the test on BT-549 it was > 100 µM (inactive); in the test with HCT-15, over 100 µM; in the test with M14, > 100 µM (inactive); in the test with MDA-MB-435, > 100 µM (inactive). Moreover, the GI50 with MDA-N, in the test on MOLT-4, with NCI-H226, in the test with NCI-H23, with NCI-H522 and with NCI/ADR-RES was > 100 µM (inactive) in each case. Moreover, the GI50 in the test on OVCAR-4, in the test with OVCAR-5, in the test with SF-539, in the test on SN12C, with SNB-75 and in the test on T47D was > 100 µM (inactive) each time. For the same compound, the GI50 in the test with TK-10 was > 100 µM (inactive).

For `c1ccc([P+](c2ccccc2)(c2ccccc2)c2ccc([P+](c3ccccc3)(c3ccccc3)c3ccccc3)c3ccccc23)cc1`, the GI50 was > 100 µM (inactive) with 786-0; > 100 µM (inactive) in the test on A498; 51.2 µM (inactive) in the test with BT-549; 64.4 µM (inactive) in the test with CCRF-CEM; over 100 µM in the test on HCT-15; > 100 µM (inactive) with M14. In addition, the GI50 is 84.3 µM (inactive) with MDA-MB-435; 64.4 µM (inactive) with MDA-N; > 100 µM (inactive) with MOLT-4; > 100 µM (inactive) in the test on NCI-H226; 57.4 µM (inactive) in the test on NCI-H23; 44.4 µM (inactive) with NCI-H522. In addition, the GI50 is > 100 µM (inactive) with NCI/ADR-RES; > 100 µM (inactive) in the test with OVCAR-5; 63.7 µM (inactive) in the test on SF-539; > 100 µM (inactive) in the test on SN12C; 70.1 µM (inactive) with SNB-75; 54.8 µM (inactive) in the test with T47D. For the same compound, the GI50 in the test with TK-10 is > 100 µM (inactive).

For `CSc1ccc(-c2cc(-c3nc4ccccc4[nH]3)nc(N)c2C#N)cc1`, the GI50 was 26.1 µM (inactive) in the test with 786-0; 15 µM (inactive) with A498; 20.6 µM (inactive) with BT-549; 13.3 µM (inactive) in the test on CCRF-CEM; 20.2 µM in the test with HCT-15; 16.8 µM (inactive) with M14. Also, the GI50 in the test on MDA-MB-435 is 17.7 µM (inactive); with MDA-N, 20.7 µM (inactive); in the test on MOLT-4, 8.39 µM (inactive); in the test with NCI-H226, 21.3 µM (inactive); with NCI-H23, 24.9 µM (inactive); in the test with NCI-H522 it was 16.1 µM (inactive). Further, the GI50 in the test with NCI/ADR-RES was 31.3 µM (inactive); with OVCAR-5, 26.6 µM (inactive); in the test with SF-539, 23.6 µM (inactive); in the test on SN12C it was 25.8 µM (inactive); with SNB-75, 23.1 µM (inactive); with T47D, 13.5 µM (inactive). The GI50 in the test on TK-10 is 31.6 µM (inactive).

With `Nn1c(CCCCCCCCc2nnc(COc3ccccc3)n2N)nnc1COc1ccccc1`, the GI50 with 786-0 is > 100 µM (inactive); in the test on A498, > 100 µM (inactive); in the test with BT-549, > 100 µM (inactive); in the test on HCT-15, over 100 µM; in the test with M14, > 100 µM (inactive); with MDA-MB-435, > 100 µM (inactive). For the same compound, the GI50 in the test with MDA-N, with MOLT-4, in the test with NCI-H226, in the test with NCI-H23, in the test on NCI-H522 and in the test on NCI/ADR-RES was > 100 µM (inactive) throughout. Further, the GI50 is > 100 µM (inactive) in the test on OVCAR-4; > 100 µM (inactive) in the test with OVCAR-5; > 100 µM (inactive) with SN12C; 88.1 µM (inactive) in the test on SNB-75; > 100 µM (inactive) in the test with T47D; > 100 µM (inactive) with TK-10.
